# Assay results: patent US6656971B2, “Trisubstituted carbocyclic cyclophilin binding compounds and their use” (Guilford Pharmaceuticals Inc., priority 2001, dated 2003)
# Molecular target: human recombinant CyPA (Homo sapiens, UniProt P62937)
# Assay: Semiautomated microtiter plate assay of rotamase activity inhibition, human recombinant CyPA
# Format: biochemical
# Conditions: Table B, value without asterisk: human recombinant CyPA
# Experimental: Rotamase inhibition was determined using a semiautomated microtiter plate assay modification of the above described assay [see Küllertz et al., Clin. Chem. 44, 502-508 (1998)]. All dilutions of CyPA, peptide substrate, and chymotrypsin were made in 35 mM ice-cold HEPES buffer. Fifty μL of CyPA solution is added to 50 μL of the peptide substrate solution (Phe-Pro-Phe p-nitroanilide, 0.16 mg/ml) in a glass microtiter well plate (the concentration of human recombinant CyP being adjusted so that the reaction rate is increased by a factor of 3 as compared to an uncatalyzed control reaction wherein the peptide substrate is degraded by chymotrypsin alone, in the absence of CyPA and test compound). Using a Beckman Multimek™ 96 automated 96-channel pipettor, 5 μL of test compound solution, or a DMSO blank, were added to each well for a 30 minute preincubation at 4° C. One hundred μL of chymotrypsin solution (1 mg/mL) were added to each well and the absorbance at 390 nm versus time was monitored for 9-10 minutes using a BioRad Ultramark plate reader maintained at 4° C. and the rate constants were determined from the absorbance versus time data files.
# IC50 values which were obtained for representative compounds are presented in the following Table B. The cyclophilin utilized was a human recombinant CyPA. […] While CyP A was used in these examples, other CyP proteins can be substituted.
# human recombinant CyPA, sequence (P62937 whole entry): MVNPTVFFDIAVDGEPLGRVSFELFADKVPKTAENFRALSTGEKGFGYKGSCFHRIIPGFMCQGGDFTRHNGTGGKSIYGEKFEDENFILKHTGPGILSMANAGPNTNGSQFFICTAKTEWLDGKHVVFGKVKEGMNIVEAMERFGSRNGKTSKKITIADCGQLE
row,IC50 [nM],Molecule
1,1980,"O=C(Nc1cccc(C(F)(F)F)c1)c1cc(Oc2ccc3ccccc3c2)cc(C(=O)Nc2cccc(C(F)(F)F)c2)c1 [Compound 17, (5-(2-naphthyloxy)-3-{N-[3-(trifluoromethyl)phenyl]carbamoyl}phenyl)-N-[3-(trifluoromethyl)phenyl]formamide]"
2,1320,"O=C(Nc1cccc(C(F)(F)F)c1)c1cc(C(=O)Nc2cccc(C(F)(F)F)c2)cc(-c2ccc3ccccc3c2)c1 [Compound 18, (5-(2-naphthyl)-3-{N-[3-(trifluoromethyl)phenyl]carbamoyl}phenyl)-N-[3-(trifluoromethyl)phenyl]formamide]"
3,2800,"O=C(NCCc1ccc(Cl)c(Cl)c1)c1cc(COc2ccc(Cl)c(Cl)c2)cc(C(=O)NCCc2ccc(Cl)c(Cl)c2)c1 [Compound 19, 1-[(3,4-dichlorophenyl)oxymethy]-3,5-bis-{[2-(3,4-dichlorophenyl)ethyl]aminocarbonyl}benzene]"
4,4710,"N#Cc1cccc(NC(=O)c2cc(OCc3ccc(-c4ccccc4C#N)cc3)cc(C(=O)Nc3cccc(C#N)c3)c2)c1 [Compound 22, 1-[4-(2-cyanophenyl)benzyl]loxy-3,5-bis-[(3-cyanophenyl)aminocarbonyl]benzene]"
5,10000,"O=S(=O)(c1cc(Cl)cc(Cl)c1)N(c1ccc(Br)c(N(S(=O)(=O)c2cc(Cl)cc(Cl)c2)S(=O)(=O)c2cc(Cl)cc(Cl)c2)c1)S(=O)(=O)c1cc(Cl)cc(Cl)c1 [Compound 30, bis[(3,5-dichlorophenyl)sulfonyl](3-{bis[(3,5-dichlorophenyl)sulfonyl]amino)-4-bromophenyl)amine]"
6,719,"S=C(Nc1cc(Cl)cc(Cl)c1)Nc1ccc(Nc2ccc(Oc3ccccc3)cc2)c(NC(=S)Nc2cc(Cl)cc(Cl)c2)c1 [Compound 40, [(3,5-dichlorophenyl)amino]{[3-({[(3,5-dichlorophenyl)amino]thioxomethyl}amino)-4-[(4-phenoxyphenyl)amino]phenyl]amino}methane-1-thione]"
7,392,"O=C(CCCCc1ccccc1)Nc1cc(Br)cc(C(=O)NNC(=S)Nc2ccc(Cl)c(Cl)c2)c1 [Compound 53, 1-{3-[(5-Phenyl)valeroylamino]-5-bromobenzoyl}-4-(3,4-dichlorophenyl) thiosemicarbazide]"

# Further lines, the molecule ahead of its results:
row,Molecule,IC50 [nM]
1,"3-{3,5-Bis-[3-(3,5-dichlorophenyl)ureido]-phenyl}propionic acid methyl ester [Compound 5]",1300
2,"COC(=O)CCc1cc(NC(=O)Nc2cc(Cl)cc(Cl)c2)cc(NC(=O)Nc2cc(Cl)cc(Cl)c2)c1 [Compound 1, 3-{3,5-Bis-[3-(3,5-dichloro-phenyl)-ureido]-phenyl}-propionic acid methyl ester]",2940
3,"O=C(Nc1cccc(C(F)(F)F)c1)c1cc(O)cc(C(=O)Nc2cccc(C(F)(F)F)c2)c1 [Compound 2, 5-Hydroxy-N,N′-bis-(3-trifluoromethyl-phenyl)-isophthalamide]",15900
4,"O=C(Nc1cccc(C(F)(F)F)c1)c1cc(C(=O)Nc2cccc(C(F)(F)F)c2)cc(-c2cccc3ccccc23)c1 [Compound 3, 5-Naphthalen-1-yl-N,N′-bis-(3-trifluoromethyl-phenyl)isophthalamide]",3420
5,"CC(C)(C)OC(=O)NCCCCCCNC(=O)c1cc(NC(=O)Nc2cc(Cl)cc(Cl)c2)cc(C(=O)Nc2cccc(C(F)(F)F)c2)c1 [Compound 4, {6-[3-[3-(3,5-Dichloro-phenyl)-ureido]-5-(3-trifluoromethyl-phenylcarbamoyl)-benzoylamino]hexyl}carbamic acid tert-butyl ester]",833
6,"O=C(Nc1cc(COc2ccc(Cl)c(Cl)c2)cc(NC(=O)c2cc(Cl)cc(Cl)c2)c1)c1cc(Cl)cc(Cl)c1 [Compound 6, 1,3-(3,5-Dichlorophenyl)-N-[5-(3,4-dichlorophenoxymethyl)-phenyl]amide]",3790
7,"O=S(=O)(Nc1cc(COc2ccc(Cl)c(Cl)c2)cc(NS(=O)(=O)c2cccc3ccccc23)c1)c1cccc2ccccc12 [Compound 7, 1,3-(1-Naphthalene)-N-[5-(3,4-dichloro-phenoxymethyl)-phenyl]-sulfonamide]",2110
8,"O=C(Nc1cccc(C(F)(F)F)c1)c1cc(OCc2ccccc2)cc(OCc2ccccc2)c1 [Compound 8, 3,5-Di(benzyloxy)-3′-(trifluoromethyl)benzanilid]",4760
9,"CS/C(=N\c1cc(Cl)cc(Cl)c1)Nc1cc(NC(=O)c2cc(Cl)cc(Cl)c2)cc(Nc2cccc(C(F)(F)F)c2)c1 [Compound 9, N-(5-{[2-aza-2-(3,5-dichlorophenyl)-1-methylthiovinyl]amino}-3-{[3-(trifluoromethyl)phenyl]amino}phenyl)(3,5-dichlorophenyl)formamide]",1580
10,"S=C(Nc1cc(Cl)cc(Cl)c1)Nc1cc(NC(=S)Nc2cc(Cl)cc(Cl)c2)cc(Nc2ccc(Br)cc2)c1 [Compound 11, [(3,5-dichlorophenyl)amino]{[3-({[(3,5-dichlorophenyl)amino]thioxomethyl}amino)-5-[(4-bromophenyl)amino]phenyl]amino}methane-1-thione]",807
11,"O=C(Nc1cc(CN2C(=O)c3ccccc3C2=O)cc(NC(=O)c2cccc(C(F)(F)F)c2)c1)c1cccc(C(F)(F)F)c1 [Compound 12, N-(5-[(1,3-dioxoisoindolin-2-yl)methyl]-3-{[3-(trifluoromethyl)phenyl]carbonylamino}phenyl)[3-(trifluoromethyl)phenyl]formamide]",7710
12,"O=C(Nc1cc(CNCc2cccc3ccccc23)cc(NC(=O)c2cccc(C(F)(F)F)c2)c1)c1cccc(C(F)(F)F)c1 [Compound 14, N-(5-{[(naphthylmethyl)amino]methyl}-3-{[3-(trifluoromethyl)phenyl]carbonyl-amino}phenyl)[3-(trifluoromethyl)phenyl]formamide]",15100
13,"(3,5-dichlorophenyl)-N-[5-({[(3,5-dichlorophenyl)amino]thioxomethyl}amino)-3-{[3-(trifluoromethyl)phenyl]amino }phenyl]formamide [Compound 10]",933
14,"(5-(2-(2-5,6,7,8-tetrahydronaphthyl)ethyl)-3-{N-[3-(trifluoromethyl)phenyl]carbamoyl}phenyl)-N-[3-(trifluoromethyl)phenyl]formamide [Compound 23]",7850
15,(5-(2-(2-naphthyl)ethyl)-3-{N-[3-(trifluoromethyl)phenyl]carbamoyl}phenyl)-N-[3-(trifluoromethyl)phenyl]formamide [Compound 24],7170
16,"[(3,5-dichlorophenyl)amino]{[3-({[(3,5-dichlorophenyl) amino]thioxo-methyl}amino)-4-(3,5-dimethylpyrazolyl)phenyl]amino}methane-1-thione [Compound 39]",1120

# Molecular target: T1, recombinant rat CyPA-GST fusion protein (Rattus norvegicus, UniProt P10111)
# T1 construct: made in house; host or cells: E. coli BL21
# T1 sequence (P10111 2-164): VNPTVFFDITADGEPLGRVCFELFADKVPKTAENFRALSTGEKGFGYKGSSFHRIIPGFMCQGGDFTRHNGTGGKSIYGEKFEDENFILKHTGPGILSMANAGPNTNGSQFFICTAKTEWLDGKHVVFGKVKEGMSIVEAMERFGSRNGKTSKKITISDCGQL
# Assay: Rotamase (PPIase) inhibition, chymotrypsin-coupled cuvette assay, rat CyPA-GST fusion protein
# Format: biochemical
# Conditions: Table A, value with asterisk: recombinant rat CyPA-GST fusion protein
row,IC50 [nM],Molecule
1,214,"O=C1c2ccccc2C(=O)N1Cc1cc(NC(=S)Nc2cc(Cl)cc(Cl)c2)cc(NC(=S)Nc2cc(Cl)cc(Cl)c2)c1 [Compound 27, 2-{[3,5-bis({[(3,5-dichlorophenyl)amino]thioxomethyl}amino)phenyl]methyl}iso-indoline-1,3-dione]"
2,914,"COc1ccc(NC(=O)Nc2cc(Cl)cc(Cl)c2)cc1OCc1cc(Cl)cc(Cl)c1 [Compound 28, 1-(3,5-Dichlorophenyl)-3-[3-(3,5-dichlorobenzyloxy)-4-methoxyphenyl]urea]"
3,10000,"O=C(Nc1cc(Cl)cc(Cl)c1)Nc1ccc(Br)c(N(S(=O)(=O)c2cc(Cl)cc(Cl)c2)S(=O)(=O)c2cc(Cl)cc(Cl)c2)c1 [Compound 29, N-(3-{bis[(3,5-dichlorophenyl)sulfonyl]amino}-4-bromophenyl)[(3,5-dichlorophenyl)amino]formamide]"
4,707,"S=C(Nc1cc(Cl)cc(Cl)c1)Nc1cc(OCc2cccc3ccccc23)ccc1Br [Compound 33, [(3,5-Dichlorophenyl)amino]{[2-bromo-5-(naphthylmethoxy)phenyl]amino}methane-1-thione]"
5,609,"S=C(Nc1cc(Cl)cc(Cl)c1)Nc1ccc(Nc2ccc(Cl)cc2)c(NC(=S)Nc2cc(Cl)cc(Cl)c2)c1 [Compound 36, [(3,5-dichlorophenyl)amino]{[3-({[(3,5-dichlorophenyl)amino]thioxo-methyl}amino)-4-[(4-chlorophenyl)amino]phenyl]amino}methane-1-thione]"
6,609,"COc1ccc(NC(=S)Nc2cc(Cl)cc(Cl)c2)cc1COc1cc(Cl)cc(Cl)c1 [Compound 45, 1-[3-(3,5-Dichlorophenoxy)methyl-4-methoxyphenyl]-3-(3,5-dichlorophenyl)thiourea]"
7,3770,"COc1ccc(NC(=S)NC(=O)c2ccccc2)cc1COc1cc(Cl)cc(Cl)c1 [Compound 46, 1-[3-(3,5-Dichlorophenoxy)methyl-4-methoxyphenyl]-3-benzoylthiourea]"
8,1220,"COc1ccc(NC(=O)c2cccc3ccccc23)cc1OCc1cccc2ccccc12 [Compound 47, N-[4-methoxy-3-(naphthylmethoxy)phenyl]naphthylformamide]"
9,1190,"COc1ccc(NC(=O)Cc2cccc3ccccc23)cc1OCc1cccc2ccccc12 [Compound 48, N-[4-methoxy-3-(naphthylmethoxy)phenyl]-2-naphthylethanamide]"
